Measurements taken from EP0987268B1, “Pharmaceutical agents containing epothilone A-N-oxide and/or epothilone B-N-oxide” (Gesellschaft für Biotechnologische Forschung mbH (GBF), priority 1998, dated 2000).

Tests used:
Assay type in all cases: cell-based
[1] = system: mouse fibroblast L929 (ATCC CCL1); assay: Cytotoxic activity, L929 cells; settings: cell line mouse fibroblast L929 (ATCC CCL1)
[2] = system: human lung carcinoma A-549 (DSM ACC 107); assay: Cytotoxic activity, A-549 cells; settings: A549, cell line human lung carcinoma A-549 (DSM ACC 107)
[3] = system: human cervix carcinoma KB 3.1 (DSM ACC 158); assay: Cytotoxic activity, KB 3.1 cells; settings: KB 3-1, cell line human cervix carcinoma KB 3.1 (DSM ACC 158)

SMILES: C/C(=C\c1csc(C)[n+]1[O-])[C@@H]1C[C@@H]2O[C@]2(C)CCC[C@H](C)[C@H](O)[C@@H](C)C(=O)C(C)(C)[C@@H](O)CC(=O)O1 [epothilone B-N-oxide]
- IC50 [1]: 4 nM
- IC50 [2]: 1.5 nM
- IC50 [3]: 2 nM
